# Assay results: patent US4325960A, “6-Amidinopenicillanic acid derivatives including the radical of a β-lactamase inhibitor” (Leo Pharmaceutical Products Ltd. A/S (Lovens Kemiske Fabrik, priority 1979, dated 1982)
# Several values for one entry are separate records, joined by “and”; a condition that tells them apart may be missing. Equal entries are not always repeated. Structures can show the parent of a compound that is named as a salt.
# Tests used:
# β-lactamases = conditions: cited from earlier work
# [1] = Urinary excretion in 0 to 6 hours of penicillanic acid 1,1-dioxide in fasting volunteers following oral administration; format: in vivo, human
# Method: Urinary excretion in 0 to 6 hours of penicillanic
# acid 1,1-dioxide in fasting volunteers following
# A. 60 mg of potassium penicillanate 1,1-dioxide
# (corresponding to 52 mg of penicillanic acid
# 1,1-dioxide) in aqueous solution
# B. 128 mg of VD-1825 hydrochloride (corresponding
# to 49.0 mg of penicillanic acid 1,1-dioxide) in […]
# [2] = in vivo; cited from earlier work
# [3] = human, in vivo, po
# Method: Serum concentrations and urinary excretion of mecillinam in fasting
# following oral administration of
# B. 128 mg of VD-1825^x hydrochloride (corresponding to 100 mg of
# pivmecillinam hydrochloride) in aqueous solution
compound,measurement,setting,value
O=C(O)[C@H]1/C(=C/CO)O[C@@H]2CC(=O)N21 [clavulanic acid],β-lactamase inhibition,β-lactamases,β-lactamase inhibitors
"CC1(C)[C@H](C(=O)O)N2C(=O)C[C@H]2S1(=O)=O [penicillanic acid 1,1-dioxide]","Absorption from the gastro-intestinal tract, cf. Table II",[1]; oral,absorbed poorly or irregularly from the gastro-intestinal tract
same,β-lactamase inhibition,β-lactamases,powerful inhibitors of a wide range of β-lactamases
CC(C)(C)C(=O)OCOC(=O)[C@@H]1N2C(=O)C[C@H]2S(=O)(=O)C1(C)C,Absorption from the gastro-intestinal tract on oral administration,[2],absorbed much more slowly
"CC1(C)[C@H](C(=O)[O-])N2C(=O)C[C@H]2S1(=O)=O.[K+] [potassium penicillanate 1,1-dioxide]","Urinary excretion of penicillanic acid 1,1-dioxide","[1]; 0 to 6 hours, individual subject, 60 mg potassium penicillanate 1,1-dioxide oral, aqueous solution, fasting, 360 min",2.4 % of dose and 3.2 % of dose and 7.7 % of dose and 5.2 % of dose and 2.9 % of dose
same,"Urinary excretion of penicillanic acid 1,1-dioxide, mean","[1]; 0 to 6 hours, mean, 60 mg potassium penicillanate 1,1-dioxide oral, aqueous solution, fasting",4.3 % of dose
same,dose excreted at 6 h,"[1]; human, in vivo, po, 60 mg, 0 to 6 hours, mean, 60 mg potassium penicillanate 1,1-dioxide oral, aqueous solution, fasting",4.3%
"CC1(C)[C@H](C(=O)O)N2C(=O)[C@H](Cl)[C@H]2S1(=O)=O [6α-chloropenicillanic acid 1,1-dioxide]",β-lactamase inhibition,β-lactamases,powerful inhibitors of a wide range of β-lactamases
"COc1cccc(OC)c1C(=O)N[C@@H]1C(=O)N2[C@@H](C(=O)O)C(C)(C)S(=O)(=O)[C@H]12 [methicillin sulphone, 1,1-dioxo-6β-(2,6-dimethoxybenzamido)penicillanic acid]",β-lactamase inhibition,β-lactamases,powerful inhibitors of a wide range of β-lactamases
CC1(C)[C@H](C(=O)O)N2C(=O)[C@@H](NC(=O)c3nc4ccccc4nc3C(=O)O)[C@H]2S1(=O)=O [quinacillin sulphone],β-lactamase inhibition,β-lactamases,powerful inhibitors of a wide range of β-lactamases
"CC1(C)S[C@@H]2[C@H](N=CN3CCCCCC3)C(=O)N2[C@H]1C(=O)O [mecillinam, 6-[(hexahydro-1H-azepin-1-yl)-methyleneamino]penicillanic acid]",Absorption from the gastro-intestinal tract on oral administration,[2],"incompletely absorbed, when given orally"
"CC1(C)S[C@@H]2[C@H](N=CN3CCCCCC3)C(=O)N2[C@H]1C(=O)OCOC(=O)[C@@H]1N2C(=O)C[C@H]2S(=O)(=O)C1(C)C [VD-1825, 1,1-Dioxopenicillanoyloxymethyl 6-[(hexahydro-1H-azepin-1-yl)-methyleneamino]penicillanate hydrochloride]","Absorption concluded from urinary recovery of penicillanic acid 1,1-dioxide","[1]; human, in vivo, po",efficient absorption
same,Urinary recovery of mecillinam compared with pivmecillinam,[3],comparable to that following administration of pivmecillinam
